# Assay results reported in US20220184222A1, “BICYCLE TOXIN CONJUGATES AND USES THEREOF” (BicycleTx Limited, priority 2019, published 2022).
# Values joined by “and” are separate entries in the source; they are usually repeats but may differ in a detail not shown here. Equal entries are not always repeated.
# System: PC-3 xenograft
# Assay: In vivo efficacy in PC-3 xenograft, male Balb/c nude mice (Example 3)
# Design: species or system Mus Musculus
# Procedure: The objective of the research is to evaluate the in vivo anti-tumor efficacy of test articles in treatment of PC-3 xenograft in Balb/c nude mice.
# The tumor cells were maintained in F-12K medium supplemented with 10% heat inactivated fetal bovine serum at 37° C. in an atmosphere of 5% CO2 in air. The tumor cells were routinely subcultured twice weekly. The cells growing in an exponential growth phase were harvested and counted for tumor inoculation.
# Each mouse was inoculated subcutaneously at the right flank with PC-3 tumor cells (10×10^6) in 0.2 ml of PBS for tumor development. 52 animals were randomized when the average tumor volume reached 454 mm^3. The test article administration and the animal numbers in each group were shown in the experimental design table.
# The major endpoint was to see if the tumor growth could be delayed or mice could be cured. Tumor volume was measured three times weekly in two dimensions using a caliper, and the volume was expressed in mm3 using the formula: V=0.5 a×b^2 where a and b are the long and short diameters of the tumor, respectively. The tumor size was then used for calculations of T/C value. The T/C value (in percent) is an indication of antitumor effectiveness; T and C are the mean volumes of the treated and control groups, respectively, on a given day.
# TGI was calculated for each group using the formula: TGI (%)=[1−(Ti−T0)/(Vi−V0)]×100; Ti is the average tumor volume of a treatment group on a given day, T0 is the average tumor volume of the treatment group on the day of treatment start, Vi is the average tumor volume of the vehicle control group on the same day with Ti, and V0 is the average tumor volume of the vehicle group on the day of treatment start.
# Tumor growth inhibition rate for test articles in the PC-3 xenograft model was calculated based on tumor volume measurements at day 20 after the start of the treatment.
# [1] = 15 mpk i.v. qw (treatment suspended after the first dosing), day 20
compound,measurement,setting,value
"CC(=O)O[C@@]12CO[C@@H]1C[C@H](O)[C@@]1(C)C(=O)[C@H](O)C3=C(C)[C@@H](OC(=O)[C@H](O)[C@@H](NC(=O)OC(C)(C)C)c4ccccc4)C[C@@](O)([C@@H](OC(=O)c4ccccc4)[C@H]21)C3(C)C [Docetaxel, reference compound]",tumor relapse after ceasing the treatment,15 mg/kg qw,obvious tumor relapse
same,animal body weight loss,"15 mg/kg qw, after the first dosing",severe animal body weight loss
same,Tumor volume,"15 mpk i.v. qw (treatment suspended after the first dosing), day 0",453 mm^3
same,Tumor volume,"15 mpk i.v. qw (treatment suspended after the first dosing), day 2",584 mm^3
same,Tumor volume,"15 mpk i.v. qw (treatment suspended after the first dosing), day 4",632 mm^3
same,Tumor volume,"15 mpk i.v. qw (treatment suspended after the first dosing), day 6",636 mm^3
same,Tumor volume,"15 mpk i.v. qw (treatment suspended after the first dosing), day 8",568 mm^3
same,Tumor volume,"15 mpk i.v. qw (treatment suspended after the first dosing), day 10",408 mm^3
same,Tumor volume,"15 mpk i.v. qw (treatment suspended after the first dosing), day 13",374 mm^3
same,Tumor volume,"15 mpk i.v. qw (treatment suspended after the first dosing), day 15",388 mm^3
same,Tumor volume,"15 mpk i.v. qw (treatment suspended after the first dosing), day 17",361 mm^3
same,T/C,[1],17.7%
same,TGI,[1],101.8%
same,Tumor volume,[1],419 mm^3 and 419 ± 31 mm^3
